Assay results reported in patent US8288385B2, “6-(3-aza-bicyclo[3.1.0]hex-3-yl)-2-phenyl-pyrimidines” (Actelion Pharmaceuticals Ltd., priority 2009, dated 2012).

Molecular target: T1, human P2Y12 receptor (Homo sapiens, UniProt Q9H244)
T1 construct: expressed in transfected cells; host or cells: Chinese Hamster Ovary (CHO) cells
Assay: P2Y12 receptor binding assay
Conditions: CHO cells with recombinant expression of the human P2Y12 receptor; tritium-labeled 2-methyl-S-ADP; RT, 2 hours
Method: P2Y12 Receptor Binding Assay
Chinese Hamster Ovary (CHO) cells with recombinant expression of the human P2Y12 receptor were cultured in 24 well cell-culture plates. Cells were washed three times with binding buffer (50 mM Tris pH 7.4, 100 mM NaCl, 1 mM EDTA, 0.5% BSA). The cells were then incubated with 0.5 ml per well binding buffer containing tritium-labeled 2-methyl-thio-adenosine 5′-diphosphate (2-methyl-S-ADP) (between 100,000 and 300,000 dpm per well) and various concentrations of test compounds. After incubation at RT for 2 hours, cells were washed three times with binding buffer. Then, cells were solubilized by addition of 0.5 ml solubilization buffer (SDS, NaOH, EDTA). The content of each well was then transferred into beta-counter vials and 2.0 ml of Ultima Gold Scintillation liquid was added.

T1 sequence (Q9H244 whole entry): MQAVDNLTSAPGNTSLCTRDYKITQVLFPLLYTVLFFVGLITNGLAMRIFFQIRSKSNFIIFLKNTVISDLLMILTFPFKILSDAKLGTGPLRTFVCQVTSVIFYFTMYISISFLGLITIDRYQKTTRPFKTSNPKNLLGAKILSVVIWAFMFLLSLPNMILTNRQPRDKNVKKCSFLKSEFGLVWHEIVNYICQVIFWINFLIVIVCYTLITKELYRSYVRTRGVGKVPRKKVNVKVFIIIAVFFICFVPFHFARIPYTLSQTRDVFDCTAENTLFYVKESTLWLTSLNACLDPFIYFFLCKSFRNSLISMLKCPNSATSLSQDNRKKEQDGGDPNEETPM

| SMILES | IC50 [nM] |
| --- | --- |
| CCCCOC(=O)N1CCN(C(=O)[C@@H](NC(=O)c2cc(N3C[C@@H]4[C@@H](CCC(=O)O)[C@@H]4C3)nc(-c3ccccc3)n2)C(C)C)CC1 [Example 27, 4-[(S)-2-({6-[(1α,5α,6α)-6-(2-Carboxy-ethyl)-3-aza-bicyclo[3.1.0]hex-3-yl]-2-phenyl-pyrimidine-4-carbonyl}-amino)-3-methyl-butyryl]-piperazine-1-carboxylic acid butyl ester] | 151 |
| CCCCCOC(=O)N1CCN(C(=O)[C@@H](NC(=O)c2cc(N3C[C@@H]4[C@H](C3)[C@@H]4C(=O)O)nc(-c3ccccc3)n2)C(C)C)CC1 [Example 15, (1α,5α,6β)-3-{6-[(S)-2-Methyl-1-(4-pentyloxycarbonyl-piperazine-1-carbonyl)-propylcarbamoyl]-2-phenyl-pyrimidin-4-yl}-3-aza-bicyclo[3.1.0]hexane-6-carboxylic acid] | 15 |
| CCCCOC(=O)N1CCN(C(=O)[C@H](Cc2ccccc2)NC(=O)c2cc(N3C[C@@H]4[C@H](C3)[C@@H]4C(=O)O)nc(-c3ccccc3)n2)CC1 [Example 45, (1α,5α,6β)-3-{6-[(S)-1-Benzyl-2-(4-butoxycarbonyl-piperazin-1-yl)-2-oxo-ethylcarbamoyl]-2-phenyl-pyrimidin-4-yl}-3-aza-bicyclo[3.1.0]hexane-6-carboxylic acid] | 255 |
| CCCCOC(=O)N1CCN(C(=O)[C@H](CP(=O)(O)O)NC(=O)c2cc(N3C[C@@H]4[C@H](C3)[C@H]4C(=O)OCC)nc(-c3ccccc3)n2)CC1 [Example 51, (1α,5α,6α)-3-{6-[(R)-2-(4-Butoxycarbonyl-piperazin-1-yl)-2-oxo-1-phosphonomethyl-ethylcarbamoyl]-2-phenyl-pyrimidin-4-yl}-3-aza-bicyclo[3.1.0]hexane-6-carboxylic acid ethyl ester] | 2.5 |
| CCCCOC(=O)N1CCN(C(=O)[C@H](CC(C)C)NC(=O)c2cc(N3C[C@@H]4[C@H](C3)[C@@H]4C(=O)O)nc(-c3ccccc3)n2)CC1 [Example 39, (1α,5α,6β)-3-{6-[(S)-1-(4-Butoxycarbonyl-piperazine-1-carbonyl)-3-methyl-butylcarbamoyl]-2-phenyl-pyrimidin-4-yl}-3-aza-bicyclo[3.1.0]hexane-6-carboxylic acid] | 124 |
| CCCCOC(=O)N1CCN(C(=O)[C@H](CC)NC(=O)c2cc(N3C[C@@H]4[C@H](C3)[C@@H]4C(=O)O)nc(-c3ccccc3)n2)CC1 [Example 36, (1α,5α,6β)-3-{6-[(S)-1-(4-Butoxycarbonyl-piperazine-1-carbonyl)-propylcarbamoyl]-2-phenyl-pyrimidin-4-yl}-3-aza-bicyclo[3.1.0]hexane-6-carboxylic acid] | 96 |
| CCCCOC(=O)N1CCN(C(=O)C(NC(=O)c2cc(N3CC4C(C3)C4C(=O)O)nc(-c3ccccc3)n2)C(C)O)CC1 [Example 42, (1α,5α,6β)-3-{6-[(1S,2R)-1-(4-Butoxycarbonyl-piperazine-1-carbonyl)-2-hydroxy-propylcarbamoyl]-2-phenyl-pyrimidin-4-yl}-3-aza-bicyclo[3.1.0]hexane-6-carboxylic acid] | 50 |
| CCCCOC(=O)N1CCN(C(=O)[C@@H](NC(=O)c2cc(N3C[C@@H]4[C@H](C3)[C@@H]4C(=O)O)nc(-c3ccc(C)cc3)n2)C(C)C)CC1 [Example 29, (1α,5α,6β)-3-{6-[(S)-1-(4-Butoxycarbonyl-piperazine-1-carbonyl)-2-methyl-propylcarbamoyl]-2-p-tolyl-pyrimidin-4-yl}-3-aza-bicyclo[3.1.0]hexane-6-carboxylic acid] | 18 |
| CCCCOC(=O)N1CCN(C(=O)[C@H](CCC(=O)O)NC(=O)c2cc(N3C[C@@H]4[C@H](N)[C@@H]4C3)nc(-c3ccccc3)n2)CC1 [Example 8, 4-((S)-2-{[6-((1α,5α,6β)-6-Amino-3-aza-bicyclo[3.1.0]hex-3-yl)-2-phenyl-pyrimidine-4-carbonyl]-amino}-4-carboxy-butyryl)-piperazine-1-carboxylic acid butyl ester] | 7 |
| CCCCOC(=O)N1CCN(C(=O)C(NC(=O)c2cc(N3CC4C(C3)C4C(=O)O)nc(-c3ccccc3)n2)C(C)C)CC1C [Example 31, (1α,5α,6β)-3-{6-[(S)-1-((R)-4-Butoxycarbonyl-3-methyl-piperazine-1-carbonyl)-2-methyl-propylcarbamoyl]-2-phenyl-pyrimidin-4-yl}-3-aza-bicyclo[3.1.0]hexane-6-carboxylic acid] | 53 |
| CCCCOC(=O)N1CCN(C(=O)[C@@H](NC(=O)c2cc(N3C[C@@H]4[C@H](C#N)[C@@H]4C3)nc(-c3ccccc3)n2)C(C)C)CC1 [Example 21, 4-((S)-2-{[6-((1α,5α,6β)-6-Cyano-3-aza-bicyclo[3.1.0]hex-3-yl)-2-phenyl-pyrimidine-4-carbonyl]-amino}-3-methyl-butyryl)-piperazine-1-carboxylic acid butyl ester] | 10 |
| CCCCOC(=O)N1CCN(C(=O)[C@H](CC#N)NC(=O)c2cc(N3C[C@@H]4[C@H](C3)[C@@H]4C(=O)O)nc(-c3ccccc3)n2)CC1 [Example 48, (1α,5α,6β)-3-{6-[(S)-1-(4-Butoxycarbonyl-piperazine-1-carbonyl)-2-cyano-ethylcarbamoyl]-2-phenyl-pyrimidin-4-yl}-3-aza-bicyclo[3.1.0]hexane-6-carboxylic acid] | 74 |
| CCCCOC(=O)N1CCN(C(=O)[C@@H](NC(=O)c2cc(N3C[C@@H]4[C@@H](C#N)[C@@H]4C3)nc(-c3ccccc3)n2)C(C)C)CC1 [Example 18, 4-((S)-2-{[6-((1α,5α,6α)-6-Cyano-3-aza-bicyclo[3.1.0]hex-3-yl)-2-phenyl-pyrimidine-4-carbonyl]-amino}-3-methyl-butyryl)-piperazine-1-carboxylic acid butyl ester] | 75 |
| CCCCOC(=O)N1CCN(C(=O)[C@H](CCC(=O)O)NC(=O)c2cc(N3C[C@@H]4[C@@H](COC)[C@@H]4C3)nc(-c3ccccc3)n2)CC1 [Example 10, 4-((S)-4-Carboxy-2-{[6-((1α,5α,6α)-6-methoxymethyl-3-aza-bicyclo[3.1.0]hex-3-yl)-2-phenyl-pyrimidine-4-carbonyl]-amino}-butyryl)-piperazine-1-carboxylic acid butyl ester] | 6.6 |
| CCCCOC(=O)N1CCN(C(=O)[C@H](CCC(=O)O)NC(=O)c2cc(N3C[C@@H]4[C@H](C3)[C@@H]4C(=O)OCC)nc(-c3ccccc3)n2)CC1 [Example 4, (1α,5α,6β)-3-{6-[(S)-1-(4-Butoxycarbonyl-piperazine-1-carbonyl)-3-carboxy-propylcarbamoyl]-2-phenyl-pyrimidin-4-yl}-3-aza-bicyclo[3.1.0]hexane-6-carboxylic acid ethyl ester] | 15 |
| CCCCOC(=O)N1CCN(C(=O)[C@@H](NC(=O)c2cc(N3C[C@@H]4[C@H](C3)[C@H]4C(=O)O)nc(-c3ccccc3)n2)C(C)C)CC1 [Example 12, (1α,5α,6α)-3-{6-[(S)-1-(4-Butoxycarbonyl-piperazine-1-carbonyl)-2-methyl-propylcarbamoyl]-2-phenyl-pyrimidin-4-yl}-3-aza-bicyclo[3.1.0]hexane-6-carboxylic acid] | 70 |
| CCCCOC(=O)N1CCN(C(=O)[C@@H](NC(=O)c2cc(N3C[C@@H]4[C@H](CCC(=O)O)[C@@H]4C3)nc(-c3ccccc3)n2)C(C)C)CC1 [Example 26, 4-[(S)-2-({6-[(1α,5α,6β)-6-(2-Carboxy-ethyl)-3-aza-bicyclo[3.1.0]hex-3-yl]-2-phenyl-pyrimidine-4-carbonyl}-amino)-3-methyl-butyryl]-piperazine-1-carboxylic acid butyl ester] | 59 |
